Test results published in patent publication US20230407243A1, “GENETIC PLATFORM TO INVESTIGATE THE FUNCTIONS OF BACTERIAL DRUG EFFLUX PUMPS” (priority 2022, published 2023).

Key:
Type in all cases: cell-based, Escherichia coli
ΔtolC-Pore = assay: microbe, parasite or virus in culture; settings: technical duplicate
Procedure, shortened: (§1)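 Strains carry the fhuA ΔC/Δ4L pore integrated between glmS and pstS under a constitutive promoter, with pore activity checked by vancomycin susceptibility. Overnight LB cultures were adjusted in PBS pH 7.4 to OD600 ~1.0 and diluted 1/2000 into MHB II. 2-fold compound titrations were read by OD600 after 18 h at 37 °C.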

wild-type (WT) K-12-Pore = assay: microbe, parasite or virus in culture; settings: technical duplicate
Procedure, shortened: as §1

[1] = tested on: wild-type E. coli K-12 str. BW25113; assay: microbe, parasite or virus in culture; settings: technical duplicate
Procedure, shortened: (§2)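 LB o/n 37 °C → PBS pH 7.4, OD600 ~1.0 → 1/2000 in MHB II; 2-fold cmpd series, duplicate, DMSO ctrl; 18 h 37 °C, 900 rpm; OD600 post minus pre.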

E. coli EKO-35 = assay: microbe, parasite or virus in culture
Procedure, shortened: as §2

E. coli ΔtolC = assay: microbe, parasite or virus in culture; settings: technical duplicate
Procedure, shortened: as §2

EKO-35 araC::acrB = assay: MIC susceptibility profiling, efflux platform
Procedure, shortened: as §2

EKO-35 araC::mdtBC = assay: MIC susceptibility profiling, efflux platform
Procedure, shortened: as §2

EKO-35 araC::mdtEF = assay: MIC susceptibility profiling, efflux platform
Procedure, shortened: as §2

EKO-35 araC::acrBD408A = assay: MIC susceptibility profiling, efflux platform
Procedure, shortened: as §2

EKO-35 araC::emrAB = assay: MIC susceptibility profiling, efflux platform
Procedure, shortened: as §2

EKO-35 araC::acrEF = assay: MIC susceptibility profiling, efflux platform
Procedure, shortened: as §2

EKO-35 araC::acrD = assay: MIC susceptibility profiling, efflux platform
Procedure, shortened: as §2

EKO-35 araC::macAB = assay: MIC susceptibility profiling, efflux platform
Procedure, shortened: as §2

EKO-35 araC::emrKY = assay: MIC susceptibility profiling, efflux platform
Procedure, shortened: as §2

[2] = tested on: EKO-35 araC::mexCD (MexCD from P. aeruginosa); assay: MIC susceptibility profiling, efflux platform
Procedure, shortened: as §2

EKO-35 araC::acrEF Pore = assay: MIC susceptibility profiling, porinated efflux platform
Procedure, shortened: as §1

EKO-35 araC::emrKY Pore = assay: as above
Procedure, shortened: as §1

EKO-35 araC::macAB Pore = assay: as above
Procedure, shortened: as §1

EKO-35 araC::mdtEF Pore = assay: as above
Procedure, shortened: as §1

[3] = Table 13A, non-porinated, technical duplicate
[4] = Table 13B, non-porinated, technical duplicate
[5] = Table 14A, porinated, technical duplicate

For benzalkonium chloride, the “Minimum inhibitory concentration (MIC), Pore ΔtolC” value (ΔtolC-Pore; Table 10, with pore) was 0.391 µg/mL, the “Minimum inhibitory concentration, ΔtolC-Pore” value (ΔtolC-Pore; Table 14A, porinated) was 0.391 µg/mL and the “Minimum inhibitory concentration (MIC), Pore K-12” value (wild-type (WT) K-12-Pore; Table 10, with pore) was 6.25 µg/mL. For the same substance, the “Minimum inhibitory concentration, K-12 (WT)-Pore” value (wild-type (WT) K-12-Pore; Table 14A, porinated) was 6.25 µg/mL, the “Minimum inhibitory concentration (MIC), K-12” value ([1]; Table 10, without pore) was 12.5 µg/mL and the “Minimum Inhibitory Concentration, K-12” value ([1]; Table 13A, non-porinated) was 12.5 µg/mL. The “Fold change of MICs” value (E. coli EKO-35; EKO-35 compared to EKO-35 (reference)) was 1 fold, the “Minimum inhibitory concentration (MIC), EKO-35” value (E. coli EKO-35; Table 10, without pore, technical duplicate) was 0.391 µg/mL and the “Minimum Inhibitory Concentration, EKO-35” value (E. coli EKO-35; [3]) was 0.391 µg/mL. For the same substance, the “Minimum inhibitory concentration (MIC), ΔtolC” value (E. coli ΔtolC; Table 10, without pore) was 0.391 µg/mL, the “Minimum Inhibitory Concentration, ΔtolC” value (E. coli ΔtolC; Table 13A, non-porinated) was 0.391 µg/mL and the “Fold change of MICs” value (EKO-35 araC::acrB; EKO-35 araC::acrB compared to EKO-35) was 32 fold. The “Minimum Inhibitory Concentration, EKO-35 araC::acrB” value (EKO-35 araC::acrB; [3]) was 12.5 µg/mL, the “Fold change of MICs” value (EKO-35 araC::mdtBC; EKO-35 araC::mdtBC compared to EKO-35) was 1 fold and the “Minimum Inhibitory Concentration, EKO-35 araC::mdtBC” value (EKO-35 araC::mdtBC; [4]) was 0.391 µg/mL. The “Fold change of MICs” value (EKO-35 araC::mdtEF; EKO-35 araC::mdtEF compared to EKO-35) was 4 fold, the “Minimum Inhibitory Concentration, EKO-35 araC::mdtEF” value (EKO-35 araC::mdtEF; [3]) was 1.563 µg/mL and the “Fold change of MICs” value (EKO-35 araC::acrBD408A; EKO-35 araC::acrBD408A compared to EKO-35) was 1 fold. For the same substance, the “Minimum Inhibitory Concentration, EKO-35 araC::acrBD408A” value (EKO-35 araC::acrBD408A; [4]) was 0.391 µg/mL, the “Fold change of MICs” value (EKO-35 araC::emrAB; EKO-35 araC::emrAB compared to EKO-35) was 1 fold and the “Minimum Inhibitory Concentration, EKO-35 araC::emrAB” value (EKO-35 araC::emrAB; [4]) was 0.391 µg/mL. For the same substance, the “Fold change of MICs” value (EKO-35 araC::acrEF; EKO-35 araC::acrEF compared to EKO-35) was 4 fold, the “Minimum Inhibitory Concentration, EKO-35 araC::acrEF” value (EKO-35 araC::acrEF; [3]) was 1.563 µg/mL and the “Fold change of MICs” value (EKO-35 araC::acrD; EKO-35 araC::acrD compared to EKO-35) was 1 fold. The “Minimum Inhibitory Concentration, EKO-35 araC::acrD” value (EKO-35 araC::acrD; [3]) was 0.391 µg/mL, the “Fold change of MICs” value (EKO-35 araC::macAB; EKO-35 araC::macAB compared to EKO-35) was 1 fold and the “Minimum Inhibitory Concentration, EKO-35 araC::macAB” value (EKO-35 araC::macAB; [4]) was 0.391 µg/mL. The “Fold change of MICs” value (EKO-35 araC::emrKY; EKO-35 araC::emrKY compared to EKO-35) was 1 fold, the “Minimum Inhibitory Concentration, EKO-35 araC::emrKY” value (EKO-35 araC::emrKY; [4]) was 0.391 µg/mL and the “Fold change of MICs” value ([2]; EKO-35 araC::mexCD compared to EKO-35) was 2 fold. The “Minimum Inhibitory Concentration, EKO-35 araC::mexCD” value [2, 4] was 0.781 µg/mL, the “efflux pump-mediated resistance vs EKO-35-Pore” value (EKO-35 araC::acrEF Pore; AcrEF with the pore) was “impacted the ability of AcrEF to confer resistance” and the “Fold changes of MICs” value (EKO-35 araC::acrEF Pore; EKO-35 araC::acrEF Pore compared to EKO-35-Pore) was 2 fold. The “Minimum inhibitory concentration, EKO-35 araC::acrEF Pore” value (EKO-35 araC::acrEF Pore; [5]) was 0.781 µg/mL, the “Fold changes of MICs” value (EKO-35 araC::emrKY Pore; EKO-35 araC::emrKY Pore compared to EKO-35-Pore) was 1 fold and the Minimum inhibitory concentration (EKO-35 araC::emrKY Pore; EKO-35 araC::emrKY Pore, technical duplicate) was 0.195 µg/mL. For the same substance, the “Fold changes of MICs” value (EKO-35 araC::macAB Pore; EKO-35 araC::macAB Pore compared to EKO-35-Pore) was 1 fold, the Minimum inhibitory concentration (EKO-35 araC::macAB Pore; EKO-35 araC::macAB Pore, technical duplicate) was 0.391 µg/mL and the “Fold changes of MICs” value (EKO-35 araC::mdtEF Pore; EKO-35 araC::mdtEF Pore compared to EKO-35-Pore) was 4 fold. For the same substance, the “Minimum inhibitory concentration, EKO-35 araC::mdtEF Pore” value (EKO-35 araC::mdtEF Pore; [5]) was 1.563 µg/mL.
